Measurements reported in patent publication US20090124502A1, “USE OF SULFURYL FLUORIDE AS A SPROUT […]” (Dow AgroSciences LLC, priority 2007, published 2009).

Assays:
Type in all cases: in vivo, Solanum tuberosum
organic Russet potatoes = experiment: Sulfuryl fluoride fumigation of stored organic Russet potatoes, physical and sprouting observations (Example 3); design: Avg Length of sprouts: unit not given here
Experimental: A third study was conducted using stored organic Russet potatoes. These potatoes were exposed to […] (0 g-h/m3, 50 g-h/m^3, 100 g-h/m^3 150 g-h/m^3 and 200 g-h/m^3) in a Styrofoam™ fumigation chamber. The exposure time was 12 hrs at ambient temperature of approximately 25° C. and relative humidity of 50 percent. The treatments were replicated 3 times. Each replicate had approximately 5 lbs of potatoes.

Russet Burbank potatoes = experiment: Sulfuryl fluoride fumigation of stored Russet Burbank potatoes, physical and sprouting observations (Example 2)
Experimental: A second study was conducted using stored Russet Burbank potatoes. These potatoes were exposed to 3 treatments (O g-h/m3, 300 g-h/m^3, and 500 g-h/m^3) in a Styrofoam™ fumigation chamber. The exposure time was 12 hrs at ambient temperature of approximately 25° C. and relative humidity of 50 percent. The treatments were replicated 3 times. Each replicate had approximately 10 lbs of potatoes.

Red potatoes = experiment: Sulfuryl fluoride fumigation of Red potatoes, physical and sprouting observations (Example 1); design: key to Tuber Firmness: 1 = firm; 2 = slightly spongy; 3 = very spongy, probably rotten
Experimental: (§1) Russet and red potatoes were purchased from an organic retail store and used for this study. These potatoes were exposed to 4 treatments (0 gram-hour/cubic meter [g-h/m^3], 500 g-h/m^3, 1000 g-h/m^3 and 1500 g-h/m^3) in a Styrofoam™ fumigation chamber. The exposure time was 12 hrs at ambient temperature of approximately 25° C. and relative humidity of 50 percent.

Russet potatoes = experiment: Sulfuryl fluoride fumigation of Russet potatoes, physical and sprouting observations (Example 1); design: key to Tuber Firmness: 1 = firm; 2 = slightly spongy; 3 = very spongy, probably rotten
Experimental: as §1

[1] = 50 g-h/m^3, 7 days after exposure
[2] = 50 g-h/m^3, 21 days after exposure
[3] = 50 g-h/m^3, 31 days after exposure
[4] = 100 g-h/m^3, 7 days after exposure
[5] = 100 g-h/m^3, 21 days after exposure
[6] = 100 g-h/m^3, 31 days after exposure
[7] = 150 g-h/m^3, 7 days after exposure
[8] = 150 g-h/m^3, 21 days after exposure
[9] = 150 g-h/m^3, 31 days after exposure
[10] = 200 g-h/m^3, 7 days after exposure
[11] = 200 g-h/m^3, 21 days after exposure
[12] = 200 g-h/m^3, 31 days after exposure
[13] = 300 g-h/m^3, 6 days after exposure, mean of 3 plots
[14] = 300 g-h/m^3, 6 days after exposure, single plots (replicates)
[15] = 300 g-h/m^3, 9 days after exposure, mean
[16] = 500 g-h/m^3, 6 days after exposure, mean of 3 plots
[17] = 500 g-h/m^3, 6 days after exposure, single plots (replicates)
[18] = 500 g-h/m^3, 9 days after exposure, mean
[19] = 500 g-h/m^3, 12 hrs exposure, 1 week after exposure
[20] = 500 g-h/m^3, 12 hrs exposure, 2 weeks after exposure
[21] = 500 g-h/m^3, 12 hrs exposure, 3 weeks after exposure
[22] = 500 g-h/m^3, 12 hrs exposure, 10 weeks after exposure
[23] = 1000 g-h/m^3, 12 hrs exposure, 1 week after exposure
[24] = 1000 g-h/m^3, 12 hrs exposure, 2 weeks after exposure
[25] = 1500 g-h/m^3, 12 hrs exposure, 1 week after exposure
[26] = 1500 g-h/m^3, 12 hrs exposure, 2 weeks after exposure

O=S(=O)(F)F [sulfuryl fluoride]
sprout growth (organic Russet potatoes; 50 g-h/m^3, 21 DAT, compared to 150 and 200 g-h/m^3 treatments): significant sprout growth | Avg Length of sprouts (organic Russet potatoes; [1]): 1.1 | Avg. Number of sprouts (organic Russet potatoes; [1]): 3.00 | Number of Sprouts (organic Russet potatoes; [1]): 60.0 | Tuber Firmness (organic Russet potatoes; [1]): 0.0 MM | Avg Length of sprouts (organic Russet potatoes; [2]): 9.1 | Avg. Number of sprouts (organic Russet potatoes; [2]): 6.3 | Number of Sprouts (organic Russet potatoes; [2]): 126.0 | Tuber Firmness (organic Russet potatoes; [2]): 1.0 MM | Avg Length of sprouts (organic Russet potatoes; [3]): 21.1 | Avg. Number of sprouts (organic Russet potatoes; [3]): 6.3 | Number of Sprouts (organic Russet potatoes; [3]): 126.0 | Tuber Firmness (organic Russet potatoes; [3]): 2.0 MM | sprout inhibition (organic Russet potatoes; 50 to 200 g-h/m^3, Table 13 (21 days after exposure)): dose dependent | sprout growth (organic Russet potatoes; 100 g-h/m^3, 21 DAT, compared to 150 and 200 g-h/m^3 treatments): significant sprout growth | Avg Length of sprouts (organic Russet potatoes; [4]): 1.0 | Avg. Number of sprouts (organic Russet potatoes; [4]): 1.9 | Number of Sprouts (organic Russet potatoes; [4]): 52.0 | Tuber Firmness (organic Russet potatoes; [4]): 0.0 MM | Avg Length of sprouts (organic Russet potatoes; [5]): 6.5 | Avg. Number of sprouts (organic Russet potatoes; [5]): 2.4 | Number of Sprouts (organic Russet potatoes; [5]): 88.0 | Tuber Firmness (organic Russet potatoes; [5]): 1.0 MM | Avg Length of sprouts (organic Russet potatoes; [6]): 16.5 | Avg. Number of sprouts (organic Russet potatoes; [6]): 2.4 | Number of Sprouts (organic Russet potatoes; [6]): 88.0 | Tuber Firmness (organic Russet potatoes; [6]): 1.0 MM | sprout growth (organic Russet potatoes; 150 g-h/m^3, 7 DAT): slight sprout growth | sprout growth (organic Russet potatoes; 150 g-h/m^3, 21 DAT observations): did not grow further | Avg Length of sprouts (organic Russet potatoes; [7]): 0.2 | Avg. Number of sprouts (organic Russet potatoes; [7]): 0.3 | Number of Sprouts (organic Russet potatoes; [7]): 17.0 | Tuber Firmness (organic Russet potatoes; [7]): 0.0 MM | Avg Length of sprouts (organic Russet potatoes; [8]): 0.2 | Avg. Number of sprouts (organic Russet potatoes; [8]): 0.3 | Number of Sprouts (organic Russet potatoes; [8]): 17.0 | Tuber Firmness (organic Russet potatoes; [8]): 0.0 MM | Avg Length of sprouts (organic Russet potatoes; [9]): 1.2 | Avg. Number of sprouts (organic Russet potatoes; [9]): 0.3 | Number of Sprouts (organic Russet potatoes; [9]): 17.0 | Tuber Firmness (organic Russet potatoes; [9]): 0.0 MM | Avg Length of sprouts (organic Russet potatoes; [10]): 0 | Avg. Number of sprouts (organic Russet potatoes; [10]): 0 | Number of Sprouts (organic Russet potatoes; [10]): 0 | Tuber Firmness (organic Russet potatoes; [10]): 0.0 MM | Avg Length of sprouts (organic Russet potatoes; [11]): 0 | Avg. Number of sprouts (organic Russet potatoes; [11]): 0 | Number of Sprouts (organic Russet potatoes; [11]): 0 | Tuber Firmness (organic Russet potatoes; [11]): 0.0 MM | Avg Length of sprouts (organic Russet potatoes; [12]): 0 | Avg. Number of sprouts (organic Russet potatoes; [12]): 0 | Number of Sprouts (organic Russet potatoes; [12]): 0 | Tuber Firmness (organic Russet potatoes; [12]): 0.0 MM | phyto-toxic effects (organic Russet potatoes; 200 g-h/m^3, after 31 days): without any phyto-toxic effects | sprout inhibition (organic Russet potatoes; 200 g-h/m^3, after 31 days): best sprout inhibition | peel testing, black spot (organic Russet potatoes; all treatments of the study (50 to 200 g-h/m^3)): none of the treatments used in this study produced the black spot | Avg Length of sprouts (Russet Burbank potatoes; [13]): 0.0 b MM | Tuber Firmness (Russet Burbank potatoes; [13]): 0.0 a 0-3 | Avg Length of sprouts (Russet Burbank potatoes; [14]): 0.0 MM | Avg. Number of sprouts (Russet Burbank potatoes; [14]): 0.00 | Tuber Firmness (Russet Burbank potatoes; [14]): 0.0 0-3 | Number of Sprouts (Russet Burbank potatoes; 300 g-h/m^3, 6 days after exposure, single plots (replicates), 10 pounds): 0.0 | Avg Length of sprouts (Russet Burbank potatoes; [15]): 0.0 b | Avg. Number of sprouts (Russet Burbank potatoes; [15]): 0.00 b | Number of Sprouts (Russet Burbank potatoes; [15]): 0.0 b | sprout growth (Russet Burbank potatoes; 300 g-h/m^3 and 500 g-h/m^3 treatments, Table 10 and 11 (6 and 9 days after exposure)): stopped sprouts from growing | Avg Length of sprouts (Russet Burbank potatoes; [16]): 0.0 b MM | Tuber Firmness (Russet Burbank potatoes; [16]): 0.0 a 0-3 | Avg Length of sprouts (Russet Burbank potatoes; [17]): 0.0 MM | Avg. Number of sprouts (Russet Burbank potatoes; [17]): 0.00 | Tuber Firmness (Russet Burbank potatoes; [17]): 0.0 0-3 | Number of Sprouts (Russet Burbank potatoes; 500 g-h/m^3, 6 days after exposure, single plots (replicates), 10 pounds): 0.0 | Avg Length of sprouts (Russet Burbank potatoes; [18]): 0.0 b | Avg. Number of sprouts (Russet Burbank potatoes; [18]): 0.00 b | Number of Sprouts (Russet Burbank potatoes; [18]): 0.0 b | Average length of sprout (Red potatoes; [19]): 0 mm | Avg. No. of Sprouts (Red potatoes; [19]): 0 | Tuber Firmness (Red potatoes; [19]): 1 | Average length of sprout (Red potatoes; [20]): 0 mm | Avg. No. of Sprouts (Red potatoes; [20]): 0 | Tuber Firmness (Red potatoes; [20]): 1 | Avg. No. of Sprouts (Red potatoes; [21]): 1.5 | Tuber Firmness (Red potatoes; [21]): 1 | Avg. No. of Sprouts (Red potatoes; [22]): 1.5 | Tuber Firmness (Red potatoes; [22]): 1 | Average length of sprout (Red potatoes; [23]): 0 mm | Avg. No. of Sprouts (Red potatoes; [23]): 0 | Tuber Firmness (Red potatoes; [23]): 2 | Average length of sprout (Red potatoes; [24]): 0 mm | Avg. No. of Sprouts (Red potatoes; [24]): 0 | Tuber Firmness (Red potatoes; [24]): 2 | Average length of sprout (Red potatoes; [25]): 0 mm | Avg. No. of Sprouts (Red potatoes; [25]): 0 | Tuber Firmness (Red potatoes; [25]): 3 | Average length of sprout (Red potatoes; [26]): 0 mm | Avg. No. of Sprouts (Red potatoes; [26]): 0 | Tuber Firmness (Red potatoes; [26]): 3 | Average length of sprout (Russet potatoes; [19]): <1 mm | Avg. No. of Sprouts (Russet potatoes; [19]): 1.4 | Tuber Firmness (Russet potatoes; [19]): 1 | Average length of sprout (Russet potatoes; [20]): <1 mm | Avg. No. of Sprouts (Russet potatoes; [20]): 1.4 | Tuber Firmness (Russet potatoes; [20]): 1 | Average length of sprout (Russet potatoes; [21]): <3 mm | Avg. No. of Sprouts (Russet potatoes; [21]): 1.4 | Tuber Firmness (Russet potatoes; [21]): 2 | Average length of sprout (Russet potatoes; [23]): <1 mm | Avg. No. of Sprouts (Russet potatoes; [23]): 0.3 | Tuber Firmness (Russet potatoes; [23]): 1 | Average length of sprout (Russet potatoes; [24]): <1 mm | Avg. No. of Sprouts (Russet potatoes; [24]): 0.3 | Tuber Firmness (Russet potatoes; [24]): 1 | Average length of sprout (Russet potatoes; [25]): 0 mm | Avg. No. of Sprouts (Russet potatoes; [25]): 0 | Tuber Firmness (Russet potatoes; [25]): 3 | Average length of sprout (Russet potatoes; [26]): 0 mm | Avg. No. of Sprouts (Russet potatoes; [26]): 0 | Tuber Firmness (Russet potatoes; [26]): 3
